Data: US10774082B2, “Quinazoline compound” (Astellas Pharma Inc., priority 2017, dated 2020)
Like-named read-outs stand apart in the source and are kept apart here.

Assays:
[1] = molecular target: T1, KRAS G12C/SOS/c-Raf complex (Homo sapiens, UniProt P01116, G12C); test: KRAS G12C/SOS/c-Raf complex formation inhibitory action (TR-FRET); format: biochemical; details: one hour at room temperature, read-out: IC50 (KRAS G12C/SOS/c-Raf complex formation inhibition)
T1 construct: Biotinylated AviTag-KRAS G12C (amino acid region 1-185, GDP)
T1 sequence (P01116 1-185 isoform P01116-2 G12C, one chain of several): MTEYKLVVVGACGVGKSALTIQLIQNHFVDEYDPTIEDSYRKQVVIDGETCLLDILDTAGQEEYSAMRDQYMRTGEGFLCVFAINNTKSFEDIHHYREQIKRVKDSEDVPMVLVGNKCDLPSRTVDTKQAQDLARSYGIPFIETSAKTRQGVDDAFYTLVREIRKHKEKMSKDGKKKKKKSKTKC
Experimental: Evaluation of KRAS G12C/SOS/c-Raf Complex Formation Inhibitory Action
Human Recombinant KRAS G12C, SOS, and c-Raf protein were used, and with respect to the complex formation of these proteins, an inhibitory action of the test compound was examined through a time-resolved fluorescence resonance energy transfer (TR-FRET) method.
Biotinylated AviTag-KRAS G12C (amino acid region 1-185, GDP) (2.5 μL; 400 nM) dissolved in assay buffer (50 mM HEPES, 150 mM NaCl, 5 mM MgCl2, 0.05% Tween 20, pH 7.4) and test compound were added in a volume of 2.5 μL from 4,000 nM to 4 nM were added to 384 well plate (Corning Inc). Son of Sevenless (SOS) (amino acid region 564-1049, 2.5 μL; 1.3 μM) and c-Raf (amino acid region 51-131) GST containing GTP (Sigma-Aldrich Co. LLC) (2.5 μL; 130 nM and 4 μM of each) were added to the above mixture, and the resultant was left to stand for one hour at room temperature. Thereafter, a mixed solution (10 μL) of LANCE Ulight-anti-GST (120 nM, PerkinElmer. Co., Ltd) and LANCE Eu-W1024 labeled Streptoavidin (100 ng/mL, PerkinElmer. Co., Ltd) was added, and a fluorescence intensity on the condition of wavelength of 620 nm and 665 nm was measured by using EnVision 2103 Multilabel Reader (PerkinElmer Co., Ltd.) under the condition of excitation wavelength of 337 nm. […] In Tables, Ex represents Example numbers described later. In addition, in Tables, Compound C represents a test compound of Example I-59 disclosed in Pamphlet of International Publication No. WO 2016/164675, and the structures of Reference Example 1 and Reference Example 2 are indicated in Table 168 described below (the same shall apply hereinafter).

NCI-H1373 cells = test: Anchorage-independent cell proliferation inhibitory action, NCI-H1373 spheroid three-dimensional culture; format: cell-based, Human; details: Homo sapiens, NCI-H1373, 144 h, read-out: IC50 (anchorage-independent cell proliferation inhibition)
Experimental: Evaluation of Anchorage-Independent Cell Proliferation Inhibitory Action with Respect to Human KRAS G12C Mutation Positive Non-Small Cell Lung Cancer Strain NCI-H1373
An anchorage-independent cell proliferation inhibitory action by the test compound was evaluated by a spheroid three-dimensional culture.
NCI-H1373 cells were seeded in cell low adsorption U bottom 384 well plates (Prime Surface: Sumitomo Bakelite Co., Ltd.) at 36 μL/well each so as to be 5×10^2 cell per well. The cell culture was performed under the same conditions as Test example 2.
The next day, the test compounds (six points in a range of final concentration 1,000 nM to 0.3 nM) and DMSO which is a solvent of the test compound as a negative control were diluted 100-fold with fresh medium, 4 μL each was added to each well. After culturing at 37° C. in the presence of 5% CO2 for six days, 20 μL of CellTiter Glo or to CellTiter Glo 2.0 (Promega Corporation) was added to each well. After stirring for one hour at room temperature using a plate mixer (FINEPCR), an emission signal was measured with ARVO X3 (PerkinElmer Co., Ltd.).
When a signal value in a DMSO treatment was set as 0% inhibition, and a signal value in cell-free medium only was set as 100% inhibition, a value of 50% inhibition (IC50) was calculated through Sigmoid-Emax model nonlinear regression analysis.

[2] = tested on: ERK phosphorylation (Thr 202/Tyr 204) in NCI-H1373 cells; test: ERK phosphorylation inhibitory action in NCI-H1373 (Cell ELISA); format: cell-based, Human; details: Homo sapiens, NCI-H1373, 2 h, read-out: IC50 (ERK phosphorylation inhibition)
Experimental: Evaluation of ERK Phosphorylation Inhibitory Action with Respect to Human KRAS G12C Mutation Positive Non-Small Cell Lung Cancer Strain NCI-H1373
The ERK phosphorylation inhibitory action by the test compound was evaluated by measuring phosphorylation of 202th threonine (Thr 202) and 204th tyrosine (Tyr 204) of ERK on the downstream of the KRAS signal by Cell ELISA.
NCI-H1373 cells (ATCC, CRL-5866) were seeded in 384 well plates (Greiner bio-one) at 36 μL/well each so as to be 2×10^4 cell per well. Cell culture was performed under the conditions of temperature of 37° C. in the presence of 5% CO2 by using RPMI 1640 medium (Sigma-Aldrich Co. LLC) containing 10% fetal bovine serum (GE Life Sciences).
The next day, the test compounds (six points in a range of final concentration 1,000 nM to 0.3 nM), final concentration 1 μM of Trametinib (GlaxoSmithKline Inc.; MEK inhibitor) as a positive control, and DMSO which is a solvent of the test compound as a negative control were diluted 100-fold with fresh medium, 4 μL each was added to each well, and then cultured for 2 hours. Immediately after culturing, 30 μL of 30% glyoxal solution (Wako: 40% glyoxal diluted with Phosphate Buffered Saline (PBS; Wako)) was added to each well, and the cells were left to stand at room temperature for one hour to be fixed. Thereafter, the supernatant was removed by centrifuging the plate (110×g for 7 seconds, unless otherwise stated below under the same conditions), and 20 μL of PBS containing 0.1% Triton X-100 (Amersham Biosciences Corp.) was added to each well. After being left to stand at room temperature for 10 minutes, the supernatant was removed by centrifugation, and the same operation was repeated. Next, 20 μL of PBS containing 0.5% SDS (Invitrogen) was added to each well, and the mixture was left to stand at room temperature for 30 minutes, and then centrifuged to remove the supernatant. Subsequently, 20 μL of a blocking solution (ODYSSEY Blocking Buffer; LI-COR Biosciences) was added to each well, and left to stand at room temperature for one hour. The supernatant was removed by centrifugation, and 10 μL of a blocking solution prepared by diluting ERK (Thr 202/Tyr 204) of a phosphorylation antibody (Cell Signaling Technology, Inc.) as a primary antibody to be ½, 500 amount with respect to a stock solution was added to each well and was left to stand at 4° C. for overnight.
The next day, a reaction liquid is removed by centrifuging the plate, 20 μL of 0.05% Tween-20-containing PBS (Thermo Scientific; 20×PBS Tween-20 diluted 20-fold with ion exchanged water) was added to each well, and each well was washed by removing the supernatant by centrifugation. Washing was performed three times in total. After washing, 10 μL of a blocking solution prepared by diluting IRDye 800CW Goat anti-Rabbit IgG (LI-COR Biosciences) as a secondary antibody to be 1/1,000 amount with respect to a stock solution was added to each well and was left to stand at room temperature for one hour. The reaction liquid was removed by centrifuging the plate, and each well was washed three times with 0.05% Tween-20-containing PBS in the same manner as after primary antibody reaction. The centrifugation after the third wash was 171×g for 17 seconds. After removal of the cleaning solution, the plate was left to air dry at room temperature for three hours or more and the fluorescent signal at 800 nm was measured by Aerius (LI-COR Biosciences).
When a signal value at the time of adding DMSO was set as 0% inhibition, and a signal value at the time of adding 1 μM of Trametinib was set as 100% inhibition, a value of 50% inhibition (IC50) was calculated through Sigmoid-Emax model nonlinear regression analysis.

[3] = NCI-H1373 spheroid, six days, CellTiter Glo
[4] = NCI-H1373 cells, cultured for 2 hours, 100% = 1 μM Trametinib

## C=CC(=O)N1CC2(CCN(c3nc(OC4CCN(C)CC4)nc4c(OCC(C)(F)F)c(-c5c(C)ccc6[nH]ncc56)c(C=C)cc34)CC2)C1 [Example 63]
[1]
  IC50: 53 nM
NCI-H1373 cells; [3]
  IC50: 14 nM
[2]; [4]
  IC50: 6.6 nM

## C=CC(=O)N1CC2(CCN(c3nc(OC4CCN(C)CC4)nc4c(OCc5cccc(OC)c5)c(-c5c(C)ccc6[nH]ncc56)c(C=C)cc34)CC2)C1 [Example 57]
[1]
  IC50: 52 nM
NCI-H1373 cells; [3]
  IC50: 39 nM
[2]; [4]
  IC50: 8.2 nM

## C=CC(=O)N1CC2(CCN(c3nc(OC4CCN(CCOC)CC4)nc4c(OCC(F)(F)F)c(-c5cccc6[nH]ncc56)c(C5CC5)cc34)CC2)C1 [Example 87]
[1]
  IC50: 39 nM
NCI-H1373 cells; [3]
  IC50: 35 nM
[2]; [4]
  IC50: 18 nM

## C=CC(=O)N1CC2(CCN(c3nc(OC4CCN(CC)CC4)nc4c(OC5CC(F)(F)C5)c(-c5c(C)ccc6[nH]ncc56)c(C=C)cc34)CC2)C1 [Example 11]
[1]
  IC50: 38 nM
NCI-H1373 cells; [3]
  IC50: 12 nM
[2]; [4]
  IC50: 10 nM

## C=CC(=O)N1CC2(CCN(c3nc(OC4CCN(C(C)=O)CC4)nc4c(OCC(F)(F)F)c(-c5c(C)ccc6[nH]ncc56)c(C=C)cc34)CC2)C1 [Example 90]
[1]
  IC50: 55 nM
NCI-H1373 cells; [3]
  IC50: 53 nM
[2]; [4]
  IC50: 22 nM

## C=CC(=O)N1CC2(CCN(c3nc(OC4CCN(CCN5CCCC5)CC4)nc4c(OCC(F)(F)F)c(-c5c(C)ccc6[nH]ncc56)c(C=C)cc34)CC2)C1 [Example 73]
[1]
  IC50: 44 nM
NCI-H1373 cells; [3]
  IC50: 28 nM
[2]; [4]
  IC50: 15 nM

## C=CC(=O)N1CC2(CCN(c3nc(OC4CCN(C)CC4)nc4c(OCC(F)F)c(-c5c(C)ccc6[nH]ncc56)c(C=C)cc34)CC2)C1 [Ex 1]
[1]
  IC50: 34 nM
NCI-H1373 cells; [3]
  IC50: 12 nM
[2]; [4]
  IC50: 6.4 nM

## C=CC(=O)N1CC2(CCN(c3nc(OC4CCN(CCOC)CC4)nc4c(OCC)c(-c5c(C)ccc6[nH]ncc56)c(C=C)cc34)CC2)C1 [Example 13]
[1]
  IC50: 37 nM
NCI-H1373 cells
  IC50: 13 nM
[2]
  IC50: 11 nM

## C=CC(=O)N1CC2(CCN(c3nc(OC4CCN(CC)CC4)nc4c(OCC(F)(F)F)c(-c5c(C)ccc6[nH]ncc56)c(C=C)cc34)CC2)C1 [Example 9]
[1]
  IC50: 55 nM
NCI-H1373 cells; [3]
  IC50: 5.5 nM
[2]; [4]
  IC50: 3.8 nM

## C=CC(=O)N1CC2(CCN(c3nc(OC4CCN(CC)CC4)nc4c(OCC)c(-c5c(C)c(F)cc6[nH]ncc56)c(C=C)cc34)CC2)C1 [Example 8]
[1]
  IC50: 32 nM
NCI-H1373 cells; [3]
  IC50: 3.5 nM
[2]; [4]
  IC50: 2.6 nM

## COCCN1CCC(Oc2nc(N3CCC4(CC3)CN(C(=O)/C=C/C(F)(F)F)C4)c3cc(C4CC4)c(-c4c(C)ccc5[nH]ncc45)c(OCC(F)F)c3n2)CC1 [Ex 82]
[1]
  IC50: 43 nM
NCI-H1373 cells; [3]
  IC50: 62 nM
[2]; [4]
  IC50: 16 nM

## C=CC(=O)N1CC2(CCN(c3nc(OC4CCN(C(=O)N(C)C)CC4)nc4c(OCC(F)(F)F)c(-c5c(C)ccc6[nH]ncc56)c(C=C)cc34)CC2)C1 [Example 70]
[1]
  IC50: 79 nM
NCI-H1373 cells; [3]
  IC50: 71 nM
[2]; [4]
  IC50: 18 nM

## C=CC(=O)N1CC2(CCN(c3nc(OCCCN(C)C)nc4c(OCC(F)(F)F)c(-c5c(C)ccc6[nH]ncc56)c(C=C)cc34)CC2)C1 [Example 71]
[1]
  IC50: 40 nM
NCI-H1373 cells; [3]
  IC50: 10 nM
[2]; [4]
  IC50: 14 nM

## C=CC(=O)N1CC2(CCN(c3nc(OC4CCN(CCCOC)CC4)nc4c(OCC(F)(F)F)c(-c5c(C)ccc6[nH]ncc56)c(C=C)cc34)CC2)C1 [Example 27]
[1]
  IC50: 40 nM
NCI-H1373 cells; [3]
  IC50: 6.5 nM
[2]; [4]
  IC50: 3.3 nM

## C=CC(=O)N1CC2(CCN(c3nc(OC4CCN(CCOC)CC4)nc4c(OCC(F)(F)F)c(-c5c(C)ccc6cn[nH]c56)c(C=C)cc34)CC2)C1 [Example 62]
[1]
  IC50: 37 nM
NCI-H1373 cells; [3]
  IC50: 14 nM
[2]; [4]
  IC50: 8.8 nM

## C=CC(=O)N1CC2(CCN(c3nc(OC4CCN(C)CC4)nc4c(OCC(C)C)c(-c5c(C)ccc6[nH]ncc56)c(C=C)cc34)CC2)C1 [Example 74]
[1]
  IC50: 50 nM
NCI-H1373 cells; [3]
  IC50: 21 nM
[2]; [4]
  IC50: 15 nM

## C=CC(=O)N1CC2(CCN(c3nc(OC[C@@H]4CCCN4C)nc4c(OCC)c(-c5c(C)ccc6[nH]ncc56)c(C5CC5)cc34)CC2)C1 [Example 23]
[1]
  IC50: 39 nM
NCI-H1373 cells; [3]
  IC50: 5.9 nM
[2]; [4]
  IC50: 4.9 nM

## C=CC(=O)N1CC2(CCN(c3nc(OC4CCN(CC5CC5)CC4)nc4c(OCC(F)(F)F)c(-c5c(C)ccc6[nH]ncc56)c(C=C)cc34)CC2)C1 [Example 46]
[1]
  IC50: 48 nM
NCI-H1373 cells; [3]
  IC50: 8.1 nM
[2]; [4]
  IC50: 5.5 nM

## C=CC(=O)N1CC2(CCN(c3nc(OCCCN4CCOCC4)nc4c(OCC)c(-c5c(C)ccc6[nH]ncc56)c(C=C)cc34)CC2)C1 [Example 85]
[1]
  IC50: 56 nM
NCI-H1373 cells; [3]
  IC50: 27 nM
[2]; [4]
  IC50: 17 nM

## C=CC(=O)N1CC2(CCN(c3nc(N4CCCN(C)CC4)nc4c(OCC(F)(F)F)c(-c5c(C)ccc6[nH]ncc56)c(C=C)cc34)CC2)C1 [Example 76]
[1]
  IC50: 43 nM
NCI-H1373 cells; [3]
  IC50: 25 nM
[2]; [4]
  IC50: 15 nM
